pEC50, pIC50: −log10 of the molar value.
How the values were obtained:
[1] = system: ATF4 in HCT116 colorectal cancer cells; test: HCT116 amino acid starved (-AA) ATF4 assay (Western blot); format: cell-based; settings: Homo sapiens, HCT-116, 4 h
Summary of the method: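 HCT116 cells switched to amino-acid-free EBSS (10% dialyzed FBS, 5.5 mM glucose, vitamins) with serial compound dilutions for 4 h at 37° C. Lysates Western blotted for phospho-GCN2 (Thr899), total GCN2, ATF4 and beta-actin; IC50 values derived from quantified bands.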

[2] = molecular target: PERK oligomers in HEK-293 cells (Homo sapiens (Human), UniProt Q9NZJ5); test: Detection of PERK oligomerization using NanoBRET; format: cell-based; settings: read-out: EC50 of stimulation of the formation of PERK oligomers
Description: Constructs for BRET were built using the NanoBRET™ Flexi® PPI Starter System (Promega, Madison, WI). The full-length PERK ORF was obtained from Genscript (Piscataway, NJ). HEK-293 cells (catalog #CRL-1573) were obtained from the American Type Culture Collection (ATTC, Manassas, VA). Cells were grown in MEM medium supplemented with 10% heat-inactivated fetal bovine serum (Invitrogen, Carlsbad, CA) and 1% Penicillin/Streptomycin/L-Glutamine at 37° C., 5% CO2, and 95% humidity. For BRET assays, cells were seeded at a density of 40,000 cells/mL in culture medium in 6-well plates and allowed to attach and recover. Cells were transfected with C-terminally tagged PERK-NLuc and C-terminally tagged PERK-Halo using Lipofectamine LTX (Thermo, Waltham, MA) and allowed to express proteins overnight at 37° C., 5% CO2, and 95% humidity. Cells were then detached from culture dishes using 0.05% trypsin-EDTA, collected, and diluted in assay medium consisting of Opti-MEM® I Reduced Serum Medium supplemented with 4% FBS (Thermo) to 22,000 cells/mL. Cells were dispensed into 96-well cell culture plates and HaloTag® NanoBRET™ 618 Ligand (Promega) was added to a final concentration of 100 nM. […] Donor ([…]) and acceptor (618) emissions were measured on a Synergy Neo2 Multi-Mode Reader (BioTek, Winooski, VT) within 10 min of substrate addition. […]

[3] = system: MV-4-11 acute myeloid leukemia xenograft; test: MV-4-11 xenograft efficacy model; format: in vivo, mice; settings: 25 mg/kg/day orally for 14 days in combination with Leunase 1000 U/kg
Description: The MV-4-11 acute myeloid leukemia xenograft model was performed in compliance with all the laws, regulations, and guidelines of the National Institutes of Health (NIH) and with the approval of the Animal Care and Use Committee of Crown Bioscience (Taicang, China), an AAALAC accredited facility. Food and water were provided ad libitum. […] Female NOD/SCID (6-9 weeks old; Vital River Laboratories Research Models and Services (Beijing, China)) were inoculated subcutaneously right front flank region with five million cells in Dulbecco's Phosphate Buffered Saline:Matrigel (1:1), using a 27-gauge needle and syringe. When tumor burdens reached 150 mm^3 on average on day 7, mice were randomly assigned into groups such that the mean tumor burden for all groups was within 10% of the overall mean tumor burden for the study population. Groups were treated on days 7-21 as follows: vehicle control (dosed orally and IP to mimic combination group (n=10); Compound 16 dosed orally at 25 mg/kg/day (n=10); Leunase (Kyowa Kirin, Japan) dosed IP at 1000 U/kg/day (n=10); Leunase (Kyowa Kirin, Japan) dosed IP at 1000 U/kg/day (n=10) and Compound 16 dosed orally at 25 mg/kg/day (n=10). Tumor volume and body weight were measured three times per week. Tumor burden (mg) was estimated from caliper measurements by the formula: tumor burden (mg=mm^3)=(length×width^2)/2.

[4] = molecular target: GCN2 kinase (Homo sapiens (Human), UniProt Q9P2K8); test: Biochemical assay for GCN2 (TR-FRET kinase activity assay); settings: 1 mM ATP, 3-hour incubation
Summary of the method: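 TR-FRET assay with 2 nM GCN2, 130 nM GFP-eIF2α substrate, 0.2 mg/mL E. coli tRNA and 1 mM ATP; compounds (0.5% DMSO) reacted 3 h. Stopped with 20 mM EDTA plus 2 nM Tb-anti-peIF2α (pSer52), 60 min RT; 520/490 ratio converted to % inhibition, IC50 from four-parameter fit.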

PERK oligomers in HEK-293 cells, sequence (Q9NZJ5 30-1116): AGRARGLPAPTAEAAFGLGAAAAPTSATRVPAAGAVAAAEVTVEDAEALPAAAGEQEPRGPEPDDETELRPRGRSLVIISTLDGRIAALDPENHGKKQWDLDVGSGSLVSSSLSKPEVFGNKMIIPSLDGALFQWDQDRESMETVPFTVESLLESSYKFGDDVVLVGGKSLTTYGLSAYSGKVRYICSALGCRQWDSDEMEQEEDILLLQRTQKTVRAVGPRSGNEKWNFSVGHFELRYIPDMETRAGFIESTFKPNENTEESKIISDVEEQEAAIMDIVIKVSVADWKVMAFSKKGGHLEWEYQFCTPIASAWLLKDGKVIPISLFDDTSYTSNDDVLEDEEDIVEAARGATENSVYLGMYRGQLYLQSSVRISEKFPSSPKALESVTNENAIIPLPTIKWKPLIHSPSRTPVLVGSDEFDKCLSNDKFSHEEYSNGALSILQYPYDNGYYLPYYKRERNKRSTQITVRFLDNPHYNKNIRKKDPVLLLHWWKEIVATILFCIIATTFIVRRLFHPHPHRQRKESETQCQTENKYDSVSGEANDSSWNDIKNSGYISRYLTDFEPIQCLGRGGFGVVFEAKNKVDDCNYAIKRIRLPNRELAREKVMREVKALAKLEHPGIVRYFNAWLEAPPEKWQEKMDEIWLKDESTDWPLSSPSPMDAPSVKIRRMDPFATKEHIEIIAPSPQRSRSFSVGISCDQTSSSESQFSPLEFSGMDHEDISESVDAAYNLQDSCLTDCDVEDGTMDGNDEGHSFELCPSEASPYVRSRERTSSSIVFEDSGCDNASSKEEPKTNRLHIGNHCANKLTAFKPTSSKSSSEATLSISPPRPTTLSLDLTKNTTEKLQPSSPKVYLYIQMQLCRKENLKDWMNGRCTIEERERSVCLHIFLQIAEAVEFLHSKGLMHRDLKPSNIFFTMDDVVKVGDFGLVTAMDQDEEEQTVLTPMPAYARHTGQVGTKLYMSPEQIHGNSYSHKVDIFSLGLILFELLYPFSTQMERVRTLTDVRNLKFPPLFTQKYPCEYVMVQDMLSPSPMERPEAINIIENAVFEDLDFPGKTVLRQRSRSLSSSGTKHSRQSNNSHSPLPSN
PERK oligomers in HEK-293 cells, sequence (Q9NZJ5 30-1116): as above
GCN2 kinase, sequence (Q9P2K8 whole entry): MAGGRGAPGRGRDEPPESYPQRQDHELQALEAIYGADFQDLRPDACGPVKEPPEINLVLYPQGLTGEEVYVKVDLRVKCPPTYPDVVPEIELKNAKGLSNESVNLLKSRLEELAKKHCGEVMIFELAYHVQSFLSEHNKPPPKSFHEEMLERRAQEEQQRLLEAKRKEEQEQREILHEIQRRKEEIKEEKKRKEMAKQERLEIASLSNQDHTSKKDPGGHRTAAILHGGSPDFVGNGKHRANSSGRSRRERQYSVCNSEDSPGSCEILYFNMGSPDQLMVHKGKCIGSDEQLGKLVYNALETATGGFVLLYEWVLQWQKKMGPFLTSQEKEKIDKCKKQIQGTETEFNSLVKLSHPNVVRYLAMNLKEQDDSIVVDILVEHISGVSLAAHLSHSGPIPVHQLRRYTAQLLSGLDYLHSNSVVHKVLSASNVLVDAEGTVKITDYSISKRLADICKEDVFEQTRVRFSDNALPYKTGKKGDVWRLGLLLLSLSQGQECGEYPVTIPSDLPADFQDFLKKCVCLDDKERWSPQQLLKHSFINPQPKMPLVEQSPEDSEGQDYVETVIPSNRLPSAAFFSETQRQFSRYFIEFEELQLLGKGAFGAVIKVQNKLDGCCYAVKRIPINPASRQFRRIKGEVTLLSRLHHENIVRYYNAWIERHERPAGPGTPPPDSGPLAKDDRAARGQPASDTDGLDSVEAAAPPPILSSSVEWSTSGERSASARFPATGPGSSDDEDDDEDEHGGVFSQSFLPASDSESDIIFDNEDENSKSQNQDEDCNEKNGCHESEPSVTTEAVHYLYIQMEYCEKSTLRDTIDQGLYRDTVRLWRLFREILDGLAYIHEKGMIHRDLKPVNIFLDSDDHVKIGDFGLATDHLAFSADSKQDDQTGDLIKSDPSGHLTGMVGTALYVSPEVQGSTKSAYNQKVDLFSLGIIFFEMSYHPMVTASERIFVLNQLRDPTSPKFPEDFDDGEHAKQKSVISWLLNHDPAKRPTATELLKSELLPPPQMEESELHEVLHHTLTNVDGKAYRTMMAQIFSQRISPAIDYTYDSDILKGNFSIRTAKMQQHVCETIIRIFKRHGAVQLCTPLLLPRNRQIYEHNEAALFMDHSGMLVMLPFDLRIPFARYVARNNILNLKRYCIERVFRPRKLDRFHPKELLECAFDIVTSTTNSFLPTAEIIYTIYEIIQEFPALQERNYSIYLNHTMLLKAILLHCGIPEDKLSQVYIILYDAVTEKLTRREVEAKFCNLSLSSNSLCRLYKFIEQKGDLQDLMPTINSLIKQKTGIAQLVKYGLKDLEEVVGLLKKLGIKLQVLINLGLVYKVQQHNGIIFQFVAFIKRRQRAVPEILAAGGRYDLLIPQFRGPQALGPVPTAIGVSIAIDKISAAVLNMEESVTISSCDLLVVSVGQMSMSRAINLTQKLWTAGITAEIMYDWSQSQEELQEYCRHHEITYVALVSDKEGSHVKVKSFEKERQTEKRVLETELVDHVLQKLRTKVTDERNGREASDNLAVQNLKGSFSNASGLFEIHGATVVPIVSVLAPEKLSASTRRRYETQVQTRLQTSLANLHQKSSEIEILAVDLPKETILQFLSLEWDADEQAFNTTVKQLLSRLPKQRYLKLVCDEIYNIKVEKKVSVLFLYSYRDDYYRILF

CNc1ncc2cc(-c3cccc(NS(=O)(=O)c4cc(Cl)cnc4OC)c3F)c(NC)nc2n1 [Compound 16]
pIC50 [1]: ≥ 7.00
pEC50 [2]: 6.57
effect on MV-4-11 tumor growth [3]: tumor regression
pIC50 [4]: ≥ 7.00
